Results from the supplement of paper PMC10307832.

Columns and labels:
Test in all cases: relative viability (nuclei count vs DMSO), 5 days (fraction); higher = more cells survive
[1] = compound: C1=CC(=CC=C1NC(=S)NNC2=C(C=C(C=C2[N+](=O)[O-])C(F)(F)F)[N+](=O)[O-])F [Kobe2602] + Nc1nc2[nH]cc(CCc3ccc(C(=O)N[C@@H](CCC(=O)O)C(=O)O)cc3)c2c(=O)[nH]1 [Pemetrexed] (partner 0.2 µM)
Procedure, shortened: (§1)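 Nuclei were stained with Hoechst during a one-step fixation (final 0.05% Triton X-100, 1% formaldehyde, 1 ug/ml Hoechst) carried out 5 days after dosing, then counted on 4× images. The cells, lung cancer lines in 1536-well plates, had been dosed by pin tool the day after seeding with one drug alone or a fixed anchor-drug dose plus five library-drug doses (not always all listed) in √10 steps. Relative viability is the nuclei count in treated wells divided by that in vehicle wells, and each value is the median of duplicate plates.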

[2] = compound: C1=CC(=CC=C1NC(=S)NNC2=C(C=C(C=C2[N+](=O)[O-])C(F)(F)F)[N+](=O)[O-])F [Kobe2602] + O=C(CCCCCCC(=O)Nc1ccccc1)NO [Vorinostat] (partner 1 µM)
Procedure, shortened: as §1

[3] = compound: COc1cc2nccc(Oc3ccc(NC(=O)C4(C(=O)Nc5ccc(F)cc5)CC4)cc3)c2cc1OC [Cabozantinib] + O=C(CCCCCCC(=O)Nc1ccccc1)NO [Vorinostat] (partner 1 µM)
Procedure, shortened: as §1

[4] = compound: O[C@@H](COc1cccc2ncccc12)CN1CCN([C@@H]2c3ccccc3[C@@H]3[C@H](c4ccccc42)C3(F)F)CC1 [Zosuquidar] + C[C@@H](Oc1cc(-c2cnn(C3CCNCC3)c2)cnc1N)c1c(Cl)ccc(F)c1Cl [Crizotinib] (partner 1 µM)
Procedure, shortened: as §1

UMC-11 showed a relative viability ([1]; first compound 0.2 µM) of 0.805, a relative viability ([1]; first compound 0.6325 µM) of 0.83 and a relative viability ([1]; first compound 2 µM) of 0.822. The relative viability ([1]; first compound 6.325 µM) was 0.788, the relative viability ([1]; first compound 20 µM) was 0.779 and the relative viability ([2]; first compound 0.2 µM) was 0.428. It also gave a relative viability ([2]; first compound 0.6325 µM) of 0.39, a relative viability ([2]; first compound 2 µM) of 0.336 and a relative viability ([2]; first compound 6.325 µM) of 0.409. The relative viability ([2]; first compound 20 µM) was 0.377, the relative viability ([3]; first compound 0.02 µM) was 0.302 and the relative viability ([3]; first compound 0.06325 µM) was 0.336. For the same cell line, the relative viability ([3]; first compound 0.2 µM) was 0.37, the relative viability ([3]; first compound 0.6325 µM) was 0.323 and the relative viability ([3]; first compound 2 µM) was 0.332. For the same cell line, the relative viability ([4]; first compound 0.01 µM) was 0.494, the relative viability ([4]; first compound 0.03162 µM) was 0.619 and the relative viability ([4]; first compound 0.1 µM) was 0.578. The relative viability ([4]; first compound 0.3162 µM) was 0.622 and the relative viability ([4]; first compound 1 µM) was 0.564.
